Broadly, the IC50 is the concentration that gives 50% inhibition. By Kd is commonly meant a measure of binding affinity in units of concentration.

The values below come from article PMC9266004, “Potential Common Mechanisms of Cytotoxicity Induced by Amide Herbicides via TRPA1 Channel Activation” (International Journal of Environmental Research and Public …, 2022).

Read-outs that look alike come from different tables or passages of the source.

The test system of one assay is A549 cells. Nature of the assay: CCK-8 cell viability assay in WT A549 cells. The assay is classed as cell-based, human. The note with it: for viability of A549 cells compared with 0 μM AHs: 150, 300, 600, 1200 μM, 24 h; for viability of A549 cells compared with 0 μM AHs / IC50: CCK-8; for viability with HC-030031 pre-treatment compared with AHs treatment alone: A549 cells, HC-030031 50 μM, AHs 150, 300, 600 μM. The procedure:
(§1) Wild-type (WT) and TRPA1-KO A549 cells were cultured in McCoy’s 5A Media and F-12K Nutrient Mixture containing 10% fetal bovine serum, respectively. WT/TRPA1-KO A549 cells (5 × 10^4 cells/mL) were seeded in 96-well (100 μL/well) and 6-well (2 mL/well) plates and incubated at 37 °C with 5% CO2 in a humidified incubator for 24 h. WT/TRPA1-KO A549 cells were treated with AHs gradient concentrations (0, 150, 300, 600, 1200 μM) prepared in methanol (1.2 M) for 24 h. […]
To conduct the cell viability assay, the growth medium was removed from WT/TRPA1-KO A549 cells cultured in a 96-well plate. CCK-8 reagent was mixed with complete medium (1:9 volume ratio), and 100 µL of the CCK-8 reagent mixture was added to each well. The plate was incubated for 4 h and the absorbance was measured at 450 nm using a microplate reader (BNR05740; Molecular Devices, Sunnyvale, CA, USA). The average absorbance from each sextuplicate set of wells was calculated and the background control value was subtracted from each absorbance value. The percentage cell viability was determined using the following equation:cell viability (%) = [(As − Ab)/(Ac − Ab)] × 100% where As is the absorbance of the experimental well (containing medium, CCK-8 reagent, cells, and compound); Ac is the absorbance of the control well (containing medium, CCK-8 reagent, and cells); and Ab is the absorbance of the blank well (containing medium and CCK-8 reagent).
In general terms: Tetrazolium assays rely on reduction of a dye to a coloured formazan, in cell work by metabolically active cells.

Assay [1] concerns the target hTRPA1 ARD recombinant protein (Homo sapiens, UniProt O75762). The assay can be described thus: LSPR binding analysis (OpenSPR, COOH chip). The note with it: for kon: read-out: association constant (ka); for koff: read-out: dissociation constant (kd). The procedure:
The binding capacity of hTRPA1 ARD recombinant protein and AHs was determined by LSPR according to the OpenSPR (Nicoya Life Sciences, Kitchener, ON, Canada) operating procedure using the COOH chip. After the baseline signal was obtained, the sample was washed with 200 µL 80% isopropyl alcohol for 10 s, and 200 µL ethylcarbodiimide/N-hydroxysuccinimide solution was added. The sample loop was rinsed with phosphate-buffered saline (PBS). hTRPA1 (5 µL) was diluted with PBS, incubated for 4 min, and 200 µL blocking solution was added. […] Contact and dissociation time of analytes and protein were 240 s and 160 s, respectively. TraceDrawer software was applied to determine the association constant (ka), dissociation constant (kd), and affinity constant (KD) using a 1:1 model.

The next assay has as its system TRPA1 mRNA in A549 cells. The assay can be described thus: RT-qPCR of TRPA1 mRNA. The assay is classed as cell-based, human. The note with it: for TRPA1 mRNA expression with HC-030031 pre-treatment compared with AHs treatment alone: HC-030031 50 μM, AHs 150, 300, 600 μM; for expression of TRPA1 mRNA compared with 0 μM AHs: significant at one or more of 150, 300, 600 μM. As for the experimental part:
as §1
TRIzol Reagent (1 mL) was directly added to WT/TRPA1-KO A549 cells in 6-well plates and total RNA was extracted according to the manufacturer’s instructions. Total RNA was used for cDNA reverse transcription, which was performed according to the PrimeScript RT protocol with the following reaction conditions: 42 °C for 2 min, 4 °C for ∞ (removal of genomic DNA), 37 °C for 15 min, 85 °C for 5 s, and 4 °C for ∞ (reverse transcriptional reaction). RT-qPCR was performed according to the TB Green Premix Ex Taq II protocol. Primer sequences and product lengths were as follows: hTRPA1 (107 bp) forward primer 5′-[…]-3′, reverse primer 5′-[…]-3′; hβ-actin (184 bp) forward primer 5′-[…]-3′, reverse primer 5′-[…]-3′. RT-qPCR was performed using the CFX96 Real-Time System (Bio-Rad Laboratories, Hercules, CA, USA) using the following reaction conditions: 95 °C for 30 s, 40 cycles of 95 °C for 5 s, 60 °C for 30 s, and 72 °C for 30 s, followed by a melting curve from 65 to 95 °C in 0.5 °C/5 s increments. Calculations were performed using the CFX Manager^TM Version 1.0 software (Bio-Rad Laboratories Ltd., Hercules, CA, USA) and are represented as fold change in expression [2^ΔΔC(t)] on a linear scale.
(In qPCR the cycle at which signal appears reflects the starting amount.)

For assay [2], the system named is calcium influx in A549 cells. The assay can be described thus: Cellular calcium imaging (Fluo-4) in WT A549 cells. The conditions noted are these: for calcium influx compared with 0 μM AHs: A549 cells, 150, 300, 600, 1200 μM; for calcium influx with HC-030031 pre-treatment compared with AHs treatment alone: A549 cells, HC-030031 50 μM, AHs 150-1200 μM. The assay is classed as cell-based, human. As for the experimental part:
as §1
(§2) Working solution was prepared according to the instructions of the Fluo-4 Direct calcium assay kit and directly added to WT/TRPA1-KO A549 cells in 96-well plates, which were incubated for 0.5 h and kept away from light after removal from the incubator. Single channel fluorescein isothiocyanate (FITC) levels were measured using a confocal high-content imaging system (IXM-C S150069, Molecular Devices, San Jose, CA, USA).

The test system of assay [3] is calcium influx in TRPA1-KO A549 cells. The assay can be described thus: Cellular calcium imaging (Fluo-4) in TRPA1-KO A549 cells. In kind it is cell-based, human. The note with it: AHs 150-1200 μM. As for the experimental part:
The hTRPA1 gene sequence (Gene ID: 8989) was obtained from the National Center for Biotechnology Information (NCBI) website (https://www.ncbi.nlm.nih.gov/gene/8989 accessed on 26 May 2022). Three gRNA sequences, namely, T1: 5′-[…]-[…], T16: 5′-[…]-3′, and T20: 5′-[…]-3′, were designed using the CRISPR online design tool (http://crispr.mit.edu/ accessed on 26 May 2022). Transfection of cells with gRNA-Cas9 was validated in test cells. Cell pool examination was performed using Sanger sequencing. Sequencing and tracer analysis were performed using the online tool TIDE (https://tide-calculator.nki.nl/ accessed on 26 May 2022) to investigate the cleavage efficiency of T1, T16, and T20. Cells from the cell pool were diluted in 96-well plates. Clones were observed under a microscope and wells containing single cell clones were labeled. Single cell clones were transferred to 24-well plates for expansion. Validation of knockout (KO) clones was performed via sequencing to confirm insertion and deletion on the genomes of KO clone candidates. Furthermore, mycoplasmas were detected for cloned cells with high KO using the Mycoplasma PCR Detection Kit.
Wild-type (WT) and TRPA1-KO A549 cells were cultured in McCoy’s 5A Media and F-12K Nutrient Mixture containing 10% fetal bovine serum, respectively. WT/TRPA1-KO A549 cells (5 × 10^4 cells/mL) were seeded in 96-well (100 μL/well) and 6-well (2 mL/well) plates and incubated at 37 °C with 5% CO2 in a humidified incubator for 24 h. WT/TRPA1-KO A549 cells were treated with AHs gradient concentrations (0, 150, 300, 600, 1200 μM) prepared in methanol (1.2 M) for 24 h. Additionally, WT/TRPA1-KO A549 cells were pre-treated with TRPA1 special inhibitor HC-030031 (100 μM) for 0.5 h and then treated with AHs gradient concentrations for 24 h.
as §2

Setting [4] is: Homo sapiens, WT A549 cells, 24 h treatment, read-out: IC50 values of AHs, A549 Cells.
[5] abbreviates: WT A549 cells pre-treated with HC-030031 50 μM, then AHs 24 h, read-out: IC50 values of AHs, A549 Cells + HC-030031 50 μM.

hTRPA1 ARD recombinant protein, sequence (O75762 62-609): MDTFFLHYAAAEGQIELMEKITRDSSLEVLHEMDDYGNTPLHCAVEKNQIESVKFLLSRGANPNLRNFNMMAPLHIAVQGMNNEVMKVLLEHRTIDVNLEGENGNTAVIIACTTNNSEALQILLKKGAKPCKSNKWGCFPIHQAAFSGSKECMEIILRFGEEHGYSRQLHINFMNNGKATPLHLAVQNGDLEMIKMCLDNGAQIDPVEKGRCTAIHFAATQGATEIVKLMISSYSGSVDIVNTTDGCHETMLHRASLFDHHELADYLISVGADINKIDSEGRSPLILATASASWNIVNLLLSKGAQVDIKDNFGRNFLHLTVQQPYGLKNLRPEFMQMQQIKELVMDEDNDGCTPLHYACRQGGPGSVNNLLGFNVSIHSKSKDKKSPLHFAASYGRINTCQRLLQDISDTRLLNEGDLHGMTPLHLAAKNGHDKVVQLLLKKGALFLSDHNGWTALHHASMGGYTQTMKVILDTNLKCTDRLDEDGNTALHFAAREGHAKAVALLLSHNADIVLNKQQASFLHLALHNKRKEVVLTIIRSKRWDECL

As for `CCc1cccc(C)c1N(C(=O)CCl)C(C)COC` (stereo not drawn) [Metolachlor, metolachlor], in the assay on A549 cells, the “viability of A549 cells compared with 0 μM AHs” value is “significantly decreased” and the “viability with HC-030031 pre-treatment compared with AHs treatment alone” value (“viability … compared with AHs treatment alone” for short) is reported as “significantly increased viability”. The IC50 in the assay on A549 cells (setting [4]) came out at 430 µM. In addition, the IC50 in the assay on A549 cells (setting [5]) was 620 µM. In addition, in assay [1], the Kd came to 364 µM, the kon worked out at 112 M⁻¹ s⁻¹ and the koff was determined as 0.0408 s⁻¹. Moreover, in the assay on TRPA1 mRNA in A549 cells, the “TRPA1 mRNA expression with HC-030031 pre-treatment compared with AHs treatment alone” value is on record as “significantly reduced” and the “expression of TRPA1 mRNA compared with 0 μM AHs” value was “significantly increased”. Further, in assay [2], the “calcium influx compared with 0 μM AHs” value is given as “significantly increased” and the “calcium influx with HC-030031 pre-treatment compared with AHs treatment alone” value is recorded as “significantly decreased calcium influx”. Further, the “calcium influx with KO of TRPA1 compared with AHs-treated WT cells” value in assay [3] is “significantly decreased calcium influx”.
For the compound `CCC(=O)Nc1ccc(Cl)c(Cl)c1` [Propanil, propanil], in the assay on A549 cells, the “viability of A549 cells compared with 0 μM AHs” value is on record as “significantly decreased” and the “viability … compared with AHs treatment alone” value was “significantly increased viability”. The half-inhibitory concentration (IC50) in the assay with A549 cells (setting [4]) came to 831 µM. In the assay with A549 cells (setting [5]), the IC50 was determined as 2290 µM. Besides, in assay [1], the Kd worked out at 16.2 µM, the kon stood at 2390 M⁻¹ s⁻¹ and the koff turned out to be 0.0388 s⁻¹. For the same compound, in the assay on TRPA1 mRNA in A549 cells, the “TRPA1 mRNA expression with HC-030031 pre-treatment compared with AHs treatment alone” value was “significantly reduced” and the “expression of TRPA1 mRNA compared with 0 μM AHs” value is “significantly increased”. Besides, in assay [2], the “calcium influx compared with 0 μM AHs” value is given as “significantly increased” and the “calcium influx with HC-030031 pre-treatment compared with AHs treatment alone” value is “significantly decreased calcium influx”. The “calcium influx with KO of TRPA1 compared with AHs-treated WT cells” value in assay [3] is recorded as “significantly decreased calcium influx”.
Regarding `CCCOCCN(C(=O)CCl)c1c(CC)cccc1CC` [Pretilachlor, pretilachlor], in the assay with A549 cells, the “viability of A549 cells compared with 0 μM AHs” value is on record as “significantly decreased” and the “viability … compared with AHs treatment alone” value was “significantly increased viability”. Moreover, the IC50 in the assay with A549 cells (setting [4]) was found to be 2330 µM. In the assay with A549 cells (setting [5]), the IC50 turned out to be 4460 µM. Also, the Kd in assay [1] was determined as 309 µM. In addition, in assay [1] (1:1 model, TraceDrawer), the “association constant (ka)” value turned out to be 14.3 M⁻¹ s⁻¹ and the “dissociation constant (kd)” value is 0.00443 s⁻¹. Further, in the assay on TRPA1 mRNA in A549 cells, the “TRPA1 mRNA expression with HC-030031 pre-treatment compared with AHs treatment alone” value is “albeit not significantly” and the “expression of TRPA1 mRNA compared with 0 μM AHs” value is “significantly increased”. Moreover, in assay [2], the “calcium influx compared with 0 μM AHs” value is given as “significantly increased” and the “calcium influx with HC-030031 pre-treatment compared with AHs treatment alone” value is recorded as “significantly decreased calcium influx”. In assay [3], the “calcium influx with KO of TRPA1 compared with AHs-treated WT cells” value is on record as “significantly decreased calcium influx”.
